The values below come from US20130337564A1, “Treatment of Pluripotent Cells” (Janssen Biotech, Inc., priority 2012, published 2013).

Assay type in all cases: cell-based
Experiment [1] deals with cells expressing pluripotency markers derived from human embryonic stem cells. The experiment is described as follows: MTS viability (toxicity) assay of cells expressing pluripotency markers. On the set-up: Raw data (duplicate), first replicate / Average: unit not given here. The note with it: for Raw data (duplicate), first replicate / Raw data (duplicate), second replicate: MTS viability assay raw reading; for Raw data (duplicate), first replicate: replicate 1; for Raw data (duplicate), second replicate: replicate 2; for Average: average of duplicate MTS raw readings; for % Control / viability at 10 µM: viability of cells expressing pluripotency markers, relative to control; for viability at 10 µM: Homo sapiens, Embryonic stem cell. The method, then:
Derivation and maintenance of cells expressing pluripotency makers was conducted as has been described in Example 2. Cells were grown in DMEM:F12 supplemented with 2% FCS (Invitrogen), 100 ng/ml Activin A, 20 ng/ml Wnt-3a, and 50 ng/ml IGF (R&D Biosystems). Cells were seeded at a density of 10,000 cells/cm^2 on Falcon polystyrene flasks and grown in monolayer culture at 37° C., 5% CO2, low oxygen. After reaching 60-70% confluence, cells were passed by washing the monolayer with PBS and incubating with TrypLE (Invitrogen) for 3-5 minutes to allow detachment and single cell dispersal.
Screening was conducted using test compounds from a proprietary library of small molecules selected for their ability to inhibit GSK-3B enzyme activity. Compounds from this library were made available as 1 mM stocks, in a 96-well plate format in 50 mM HEPES, 30% DMSO. For assay, cells expressing pluripotency markers were washed, counted, and plated in normal culture medium at a seeding density of 20,000 cells per well in 96-well clear-bottom, dark-well plates (Costar). This seeding density was previously determined to yield optimal monolayer formation in overnight culture. On the following day, culture medium was removed, cell monolayers were rinsed three times with PBS, and test compounds were added to the wells in 80 μl aliquots, each diluted into assay medium at a final assay concentration of 10 μM. On day 2 of the assay, medium was removed from each well and replaced with a fresh aliquot of test compounds diluted into assay medium. Assay medium on days 1 and 2 of culture consisted of DMEM:F12 supplemented with 0.5% FCS and 100 ng/ml Activin A. On days 3 and 4 of culture, medium was removed from each well and replaced with DMEM:F12 supplemented with 2% FCS and 100 ng/ml Activin A (no test compound). On day 4 of assay, 15 μl of MTS (Promega) was added to each well and plates were incubated at 37° C. for 1.5 to 4 hours prior to reading optical density at 490 nm on a SpectraMax (Molecular Devices) instrument. Statistical measures consisting of mean, standard deviation, and coefficient of variation were calculated for each duplicate set. Toxicity was calculated for each test well relative to a positive control (wells treated with Activin A and Wnt3a on days 1 and 2 of culture).
A larger proportion of the compounds have minimal or no measurable toxicity in this cell-based assay.
A small panel of select compounds was repeat tested over a narrow dose titration range, again using cells expressing pluripotency markers in a similar assay as described above.
A general note: Tetrazolium assays rely on reduction of a dye to a coloured formazan, in cell work by metabolically active cells.

Experiment [2] relates to HNF-3beta expression in human embryonic stem cells (H9 line). The experiment is described as follows: High content screening assay: HNF-3beta protein expression (differentiation). The note with it: for HNF3β Expression, Fold over Wnt 3a/AA control: 10 μM test compound with 100 ng/ml activin A on days 1-2, H9, total intensity by IN Cell Analyzer, strong and moderate hits; for HNF-3b Expression Fold over Wnt 3a/AA control: total intensity normalised to Wnt 3a/AA control. The method, then: (§1) Maintenance of human embryonic stem cells (H9 line) was conducted as described in Example 1. Colonies of cells were maintained in an undifferentiated, pluripotent state with passage on average every four days. Passage was performed by exposing cell cultures to a solution of collagenase (1 mg/ml; Sigma-Aldrich) for 10 to 30 minutes at 37° C. followed by gentle scraping with a pipette tip to recover cell clusters. Clusters were allowed to sediment by gravity, followed by washing to remove residual collagenase. Cell clusters were split at a 1:3 ratio for routine maintenance culture or a 1:1 ratio for immediate assay. The human embryonic stem cell lines used were maintained at passage numbers less than passage 50 and routinely evaluated for normal karyotypic phenotype and absence of mycoplasma contamination.
(§2) Cell clusters used in the assay were evenly resuspended in normal culture medium and plated onto MATRIGEL-coated 96-well Packard VIEWPLATES (PerkinElmer) in volumes of […]. MEF conditioned medium supplemented with 8 ng/ml bFGF was used for initial plating and recovery. Daily feeding was conducted by aspirating spent culture medium from each well and replacing with an equal volume of fresh medium. Plates were maintained at 37° C., 5% CO2 in a humidified box throughout the duration of assay.
(§3) Screening was conducted using test compounds from a proprietary library of small molecules selected for their ability to inhibit GSK-3B enzyme activity. Compounds from this library were made available as 1 mM stocks, in a 96-well plate format in 50 mM HEPES, 30% DMSO. Screening compounds were tested in triplicate or duplicate sets. Primary screening assays were initiated by aspirating culture medium from each well followed by three washes in PBS to remove residual growth factors and serum. Test volumes of 80 to 100 μl per well were added back containing DMEM:F12 base medium (Invitrogen) supplemented with 0.5% FCS (HyClone) and 100 ng/ml activin A (R&D Biosystems) plus 10 μM test compound. Positive control wells contained the same base medium, substituting 10-20 ng/ml Wnt3a (R&D Biosystems) for the test compound. Negative control wells contained base medium with 0.5% FCS and activin A alone (AA only) or alternatively, 0.5% FCS without activin A or Wnt3a (no treatment). Wells were aspirated and fed again with identical solutions on day 2 of assay. On days 3 and 4, all assay wells were aspirated and converted to DMEM:F12 supplemented with 2% FCS and 100 ng/ml activin A (without test compound or Wnt3a); parallel negative control wells were maintained in DMEM:F12 base medium with 2% FCS and activin A (AA only) or alternatively, 2% FCS without activin A (no treatment).
(§4) At the end of culture, cells in 96-well plates were fixed with 4% paraformaldehyde at room temperature for 20 minutes, washed three times with PBS, and then permeabilized with 0.5% Triton X-100 for 20 minutes at room temperature. Alternatively, cells were fixed with ice cold 70% ethanol overnight at −20° C., washed three times with PBS, and then permeabilized with Triton X-100 for 5 minutes at 4° C. After fixing and permeabilizing, cells were washed again three times with PBS and then blocked with 4% chicken serum (Invitrogen) in PBS for 30 minutes at room temperature. Primary antibodies (goat anti-human Sox17 and goat anti-human HNF-3beta; R&D Systems) were diluted 1:100 in 4% chicken serum and added to cells for one hour at room temperature. Alexa Fluor 488 conjugated secondary antibody (chicken anti-goat IgG; Molecular Probes) was diluted 1:200 in PBS and added after washing the cells three times with PBS. To counterstain nuclei, 5 mM Draq5 (Alexis Biochemicals) was added for five minutes at room temperature. Cells were washed once with PBS and left in […] PBS for imaging.
(§5) Cells were imaged using an IN Cell Analyzer 1000 (GE Healthcare) utilizing the 51008bs dichroic for cells stained with Draq5 and Alexa Fluor 488. […]

Experiment [3] has as its system human embryonic stem cells (H9 line). The experiment is described as follows: High content screening assay: cell number (proliferative response). The protocol:
as §1, §2, §3, §4, §5

Experiment [4] concerns Sox17 expression in human embryonic stem cells (H9 line). The experiment is described as follows: High content screening assay: Sox17 protein expression (differentiation). Conditions: for SOX-17 Expression Fold over Wnt 3a/AA control: total intensity normalised to Wnt 3a/AA control. The protocol:
as §1, §2, §3, §4, §5

[5] abbreviates: 10 μM test compound with 100 ng/ml activin A on days 1-2, H9, total cell number by IN Cell Analyzer, strong and moderate hits.
The mark [6] stands for this setting: cell number in the wells analysed for HNF-3b expression.
The mark [7] stands for this setting: cell number in the wells analysed for HNF-3b expression, normalised to Wnt 3a/AA control.
The mark [8] stands for this setting: cell number in the wells analysed for SOX-17 expression.
[9] abbreviates: cell number in the wells analysed for SOX-17 expression, normalised to Wnt 3a/AA control.
Where [10] appears, read: 10 μM test compound with 100 ng/ml activin A on days 1-2, H9, total intensity by IN Cell Analyzer, strong and moderate hits.

Where “and” joins values, the source holds several entries; their conditions need not be identical. Identical values can stand only once.

Take `CCN1CCOCCn2cc(c3ccccc32)C2=C(C(=O)NC2=O)c2cn(c3ccccc23)CCOCC1` [Compound 15, 11-Ethyl-6,7,10,11,12,13,15,16-octahydro-9H,23H-5,26:17,22-di(metheno)dibenzo[k,q]pyrrolo[3,4-n][1,7,4,10,19]dioxatriazacyclohenicosine-23,25(24H)-dione]: in experiment [1], the “Raw data (duplicate), first replicate” value is recorded as 0.162; the “Raw data (duplicate), second replicate” value is listed as 0.134; the Average was found to be 0.148; the “% Control” value was 4.5%. In experiment [2], the “HNF3β Expression, Fold over Wnt 3a/AA control” value (“HNF3β Expression, Fold” below) was 0.8807 Fold over Wnt 3a/AA control; the “HNF-3b Expression Total Intensity” value was found to be 404710000; the “HNF-3b Expression Fold over Wnt 3a/AA control” value was 0.8807 fold. Besides, the “Proliferative Response Fold over Wnt 3a/AA control” value (“Proliferative Response Fold” below) in experiment [3] (setting [5]) was 1.3217 Fold over Wnt 3a/AA control and 1.0269 Fold over Wnt 3a/AA control. In addition, the “Proliferative Response Total cells” value in experiment [3] (setting [6]) turned out to be 5186. Also, the “Proliferative Response Fold” value in experiment [3] (setting [7]) was determined as 1.027 fold. Besides, the “Proliferative Response Total cells” value in experiment [3] (setting [8]) turned out to be 10533. Further, the “Proliferative Response Fold” value in experiment [3] (setting [9]) is given as 1.322 fold. Further, the “SOX17 Expression, Fold over Wnt 3a/AA control” value in experiment [4] (setting [10]) is reported as 1.2678 Fold over Wnt 3a/AA control. Moreover, in experiment [4], the “SOX-17 Expression Total Intensity” value is 475250000 and the “SOX-17 Expression Fold over Wnt 3a/AA control” value came to 1.2678 fold.
As to `O=C1NC(=O)C2=C1c1cn(c3ncccc13)CCOCCOCCOCCOCCn1cc2c2cccnc21` [Compound 6, 10,11,13,14,16,17,19,20,22,23-Decahydro-1H-9,4:24,29-di(metheno)dipyrido[2,3-n:3′,2′-t]pyrrolo[3,4-q][1,4,7,10,13,22]tetraoxadiazacyclotetracosine-1,3(2H)-dione], in experiment [1], the “Raw data (duplicate), first replicate” value worked out at 0.706; the “Raw data (duplicate), second replicate” value stood at 0.672; the Average stood at 0.689; the “% Control” value is given as 83.9%. In experiment [2], the “HNF3β Expression, Fold” value was 1.3832 Fold over Wnt 3a/AA control; the “HNF-3b Expression Total Intensity” value came out at 635655000; the “HNF-3b Expression Fold over Wnt 3a/AA control” value was found to be 1.3832 fold. Moreover, the “Proliferative Response Fold” value in experiment [3] (setting [5]) is on record as 1.9264 Fold over Wnt 3a/AA control. In addition, the “Proliferative Response Total cells” value in experiment [3] (setting [6]) is listed as 9728. In experiment [3] (setting [7]), the “Proliferative Response Fold” value worked out at 1.926 fold. For the same molecule, in experiment [3] (setting [8]), the “Proliferative Response Total cells” value was 9964.5. The “Proliferative Response Fold” value in experiment [3] (setting [9]) is on record as 1.25 fold. For the same molecule, in experiment [4] (setting [10]), the “SOX17 Expression, Fold over Wnt 3a/AA control” value is on record as 0.9706 Fold over Wnt 3a/AA control. In experiment [4], the “SOX-17 Expression Total Intensity” value is 363855000 and the “SOX-17 Expression Fold over Wnt 3a/AA control” value stood at 0.9706 fold.
As a reminder, the viability is the share of living cells, or the viability signal relative to a control. For `O=C1NC(=O)C(c2nn(CCCO)c3ccccc23)=C1c1cn(-c2ccc3ccccc3c2)c2ncccc12` [Compound 19, 3-[1-(3-Hydroxypropyl)-1H-indazol-3-yl]-4-(1-naphthalen-2-yl-1H-pyrrolo[2,3-b]pyridin-3-yl)-1H-pyrrole-2,5-dione], the viability at 10 µM in experiment [1] is 85.2%. Further, the “HNF-3b Expression Total Intensity” value in experiment [2] was 0.
Take `O=C1NC(=O)C(c2nn(CCCO)c3ccccc23)=C1c1cn(-c2ccc3ccccc3c2)c2ccccc12` [Compound 13]: in experiment [1], the viability at 10 µM came to 92.6%; the “Raw data (duplicate), first replicate” value is 0.767; the “Raw data (duplicate), second replicate” value is given as 0.789; the Average worked out at 0.778. In addition, in experiment [2], the “HNF3β Expression, Fold” value is listed as 0.7104 Fold over Wnt 3a/AA control and the “HNF-3b Expression Total Intensity” value was found to be 326475000. In addition, in experiment [3] (Homo sapiens, Embryonic stem cell, 10 μM test compound with 100 ng/ml activin A on days 1-2, H9, total cell number by IN Cell Analyzer, strong and moderate hits, read-out: Proliferative Response, Fold over Wnt 3a/AA control), the fold induction at 10 µM is 0.902. Moreover, in experiment [3] (setting [6]), the “Proliferative Response Total cells” value is 4556. Besides, the “Proliferative Response Total cells” value in experiment [3] (setting [8]) is given as 4783. Moreover, the fold induction at 10 µM in experiment [4] (Homo sapiens, Embryonic stem cell, 10 μM test compound with 100 ng/ml activin A on days 1-2, H9, total intensity by IN Cell Analyzer, strong and moderate hits, read-out: SOX17 Expression, Fold over Wnt 3a/AA control) came to 0.817. In addition, the “SOX-17 Expression Total Intensity” value in experiment [4] is 306085000.
